According to patent publication US20240294534A1, “IMIDAZOTRIAZINE DERIVATIVES AS IL-17 MODULATORS” (UCB BIOPHARMA SRL, priority 2021, published 2024):

Biological target: T1, IL-17A (Homo sapiens, UniProt Q16552)
T1 sequence (Q16552 24-155): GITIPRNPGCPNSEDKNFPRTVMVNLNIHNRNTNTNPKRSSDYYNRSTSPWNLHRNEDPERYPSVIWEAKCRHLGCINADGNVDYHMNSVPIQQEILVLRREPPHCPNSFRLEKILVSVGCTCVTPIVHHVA
Assay: Inhibition of IL-17A induced IL-6 release from dermal fibroblast cell line (HDF cell line assay)
Format: cell-based
Details: human dermal fibroblasts stimulated with IL-17A (50 pM) + TNF-α (25 pM); IL-6 measured by HTRF; pIC50 = -log10[IC50], IC50 molar
From the text: Inhibition of IL-17A Induced IL-6 Release from Dermal Fibroblast Cell Line
The purpose of this assay is to test the neutralising ability to IL-17 proteins, in a human primary cell system. Stimulation of normal human dermal fibroblasts (HDF) with IL-17 alone produces only a very weak signal but in combination with certain other cytokines, such as TNFα, a synergistic effect can be seen in the production of inflammatory cytokines, i.e. IL-6.
HDFs were stimulated with IL-17A (50 pM) in combination with TNF-α (25 pM). The resultant IL-6 response was then measured using a homogenous time-resolved FRET kit from Cisbio. The kit utilises two monoclonal antibodies, one labelled with Eu-Cryptate (Donor) and the second with d2 or XL665 (Acceptor). The intensity of the signal is proportional to the concentration of IL-6 present in the sample (Ratio is calculated by 665/620×104).
The ability of a compound to inhibit IL-17 induced IL-6 release from human dermal fibroblasts is measured in this assay.
HDF cells (Sigma #106-05n) were cultured in complete media (DMEM+10% FCS+2 mM L-glutamine) and maintained in a tissue culture flask using standard techniques. Cells were harvested from the tissue culture flask on the morning of the assay using TrypLE (Invitrogen #12605036). The TrypLE was neutralised using complete medium (45 mL) and the cells were centrifuged at 300×g for 3 minutes. The cells were re-suspended in complete media (5 mL) counted and adjusted to a concentration of 3.125×10^4 cells/mL before being added to the 384 well assay plate (Corning #3701) at 40 μL per well. The cells were left for a minimum of three hours, at 37° C./5% CO2, to adhere to the plate.
Compounds were serially diluted in DMSO before receiving an aqueous dilution into a 384 well dilution plate (Greiner #781281), where 5 μL from the titration plate was transferred to 45 μL of complete media and mixed to give a solution containing 10% DMSO.
Mixtures of TNFα and IL-17 cytokine were prepared in complete media to final concentrations of TNFα 25 pM/IL-17A 50 pM, then 30 μL of the solution was added to a 384 well reagent plate (Greiner #781281).
10 μL from the aqueous dilution plate was transferred to the reagent plate containing 30 μL of the diluted cytokines, to give a 2.5% DMSO solution. The compounds were incubated with the cytokine mixtures for 5 h at 37° C. After the incubation, 10 μL was transferred to the assay plate, to give a 0.5% DMSO solution, then incubated for 18-20 h at 37° C./5% CO2.
From the Cisbio IL-6 FRET kit (Cisbio #62IL6PEB) europium cryptate and Alexa 665 were diluted in reconstitution buffer and mixed 1:1, as per kit insert. To a white low volume 384 well plate (Greiner #784075) were added FRET reagents (10 μL), then supernatant (10 μL) was transferred from the assay plate to Greiner reagent plate. The mixture was incubated at room temperature for 3 h with gentle shaking (<400 rpm) before being read on a Synergy Neo 2 plate reader (Excitation: 330 nm; Emission: […]).

Structure (SMILES)	IC50
Cc1nonc1C(=O)N[C@H](c1cn2ncc([C@@H]3C[C@@](O)(C(F)(F)F)CCN3C(=O)C34CC(F)(C3)C4)nc2n1)C(C1CC1)C1CC1 (single isomer, unassigned) [Example 1]	7.94 nM
Cc1nonc1C(=O)N[C@H](c1cn2ncc([C@H]3C[C@](O)(C(F)(F)F)CCN3C(=O)C34CC(F)(C3)C4)nc2n1)C(C1CC1)C1CC1 (single isomer, unassigned) [Example 2]	158 nM
Cc1nonc1C(=O)N[C@H](c1cn2ncc([C@@H]3COCCN3C(=O)C34CC(F)(C3)C4)nc2n1)C1CCC(F)(F)CC1 (single isomer, unassigned) [Example 3]	79.4 nM
Cc1nonc1C(=O)N[C@H](c1cn2ncc([C@H]3COCCN3C(=O)C34CC(F)(C3)C4)nc2n1)C1CCC(F)(F)CC1 (single isomer, unassigned) [Example 4]	631 nM
Cc1nonc1C(=O)N[C@H](c1cn2ncc([C@@H]3COCCN3C(=O)[C@@H]3CCC(F)(F)CO3)nc2n1)C(C1CC1)C1CC1 (single isomer, unassigned) [Example 5]	3.98 nM
Cc1nonc1C(=O)N[C@H](c1cn2ncc([C@H]3COCCN3C(=O)[C@@H]3CCC(F)(F)CO3)nc2n1)C(C1CC1)C1CC1 (single isomer, unassigned) [Example 6]	100 nM
Cc1nonc1C(=O)N[C@H](c1cn2ncc([C@@H]3COCCN3C(=O)[C@@H]3CCC(F)(F)CO3)nc2n1)C1CCC(F)(F)CC1 (single isomer, unassigned) [Example 7]	6.31 nM
Cc1nonc1C(=O)NC(c1cn2ncc(C3COCCN3C(=O)C3CCC(F)(F)CO3)nc2n1)C1CCC(F)(F)CC1 (single isomer, unassigned) [Example 8]	126 nM
Cc1nonc1C(=O)N[C@H](c1cn2ncc([C@@H]3C[C@@](O)(C(F)(F)F)CCN3C(=O)C34CC(F)(C3)C4)nc2n1)C1CCC(F)(F)CC1 (single isomer, unassigned) [Example 9]	6.31 nM
Cc1nonc1C(=O)N[C@H](c1cn2ncc([C@H]3C[C@](O)(C(F)(F)F)CCN3C(=O)C34CC(F)(C3)C4)nc2n1)C1CCC(F)(F)CC1 (single isomer, unassigned) [Example 10]	501 nM
O=C(N[C@H](c1cn2ncc([C@@H]3C[C@@](O)(C(F)(F)F)CCN3C(=O)C34CC(F)(C3)C4)nc2n1)C1CCC(F)(F)CC1)C1(F)CC1 (single isomer, unassigned) [Example 11]	50.1 nM
O=C(N[C@H](c1cn2ncc([C@H]3C[C@](O)(C(F)(F)F)CCN3C(=O)C34CC(F)(C3)C4)nc2n1)C1CCC(F)(F)CC1)C1(F)CC1 (single isomer, unassigned) [Example 12]	7940 nM
Cc1nonc1C(=O)N[C@H](c1cn2ncc([C@@H]3C[C@@](O)(C(F)(F)F)CCN3C(=O)[C@@H]3CCC(F)(F)CO3)nc2n1)C1CCC(F)(F)CC1 (single isomer, unassigned) [Example 18]	2.51 nM
Cc1nonc1C(=O)N[C@H](c1cn2ncc([C@H]3C[C@](O)(C(F)(F)F)CCN3C(=O)[C@@H]3CCC(F)(F)CO3)nc2n1)C1CCC(F)(F)CC1 (single isomer, unassigned) [Example 19]	100 nM
O=C([C@@H]1CCC(F)(F)CO1)N1CC[C@](O)(C(F)(F)F)C[C@H]1c1cnn2cc([C@@H](NC(=O)C3(F)CC3)C3CCC(F)(F)CC3)nc2n1 (single isomer, unassigned) [Example 20]	15.8 nM
O=C([C@@H]1CCC(F)(F)CO1)N1CC[C@@](O)(C(F)(F)F)C[C@@H]1c1cnn2cc([C@@H](NC(=O)C3(F)CC3)C3CCC(F)(F)CC3)nc2n1 (single isomer, unassigned) [Example 21]	398 nM
Cc1nonc1C(=O)N[C@H](c1cn2ncc([C@@H]3C[C@@](O)(C(F)F)CCN3C(=O)[C@@H]3CCC(F)(F)CO3)nc2n1)C1CCC(F)(F)CC1 (single isomer, unassigned) [Example 22]	6.31 nM
Cc1nonc1C(=O)N[C@H](c1cn2ncc([C@H]3C[C@](O)(C(F)F)CCN3C(=O)[C@@H]3CCC(F)(F)CO3)nc2n1)C1CCC(F)(F)CC1 (single isomer, unassigned) [Example 23]	158 nM
Cc1nonc1C(=O)N[C@H](c1cn2ncc([C@@H]3COCCN3C(=O)[C@@H]3CCC(F)(F)CO3)nc2n1)[C@H]1CC[C@H](C(F)(F)F)CC1 (single isomer, unassigned) [Example 24]	10 nM
Cc1nonc1C(=O)N[C@H](c1cn2ncc([C@@H]3COCCN3C(=O)[C@@H]3CCC(F)(F)CO3)nc2n1)[C@H]1CC[C@H](C(F)(F)F)CC1 (single isomer, unassigned) [Example 25]	316 nM
Cc1nonc1C(=O)N[C@H](c1cn2ncc([C@@H]3C[C@@](O)(C(F)F)CCN3C(=O)C34CC(F)(C3)C4)nc2n1)C1CCC(F)(F)CC1 (single isomer, unassigned) [Example 26]	10 nM

Continued, values first:

IC50	Structure (SMILES)
251 nM	Cc1nonc1C(=O)N[C@H](c1cn2ncc([C@H]3C[C@](O)(C(F)F)CCN3C(=O)C34CC(F)(C3)C4)nc2n1)C1CCC(F)(F)CC1 (single isomer, unassigned) [Example 27]
39.8 nM	Cc1nonc1C(=O)N[C@H](c1cn2ncc([C@@H]3C[C@](O)(C(F)F)CCN3C(=O)C34CC(F)(C3)C4)nc2n1)C1CCC(F)(F)CC1 (single isomer, unassigned) [Example 28]
631 nM	Cc1nonc1C(=O)N[C@H](c1cn2ncc([C@H]3C[C@@](O)(C(F)F)CCN3C(=O)C34CC(F)(C3)C4)nc2n1)C1CCC(F)(F)CC1 (single isomer, unassigned) [Example 29]
12.6 nM	Cc1nonc1C(=O)N[C@H](c1cn2ncc([C@@H]3C[C@](O)(C(F)F)CCN3C(=O)[C@@H]3CCC(F)(F)CO3)nc2n1)C1CCC(F)(F)CC1 (single isomer, unassigned) [Example 30]
15.8 nM	Cc1nonc1C(=O)N[C@H](c1cn2ncc([C@H]3C[C@@](O)(C(F)F)CCN3C(=O)[C@@H]3CCC(F)(F)CO3)nc2n1)C1CCC(F)(F)CC1 (single isomer, unassigned) [Example 31]
63.1 nM	Cc1nonc1C(=O)N[C@H](c1cn2ncc([C@@H]3C[C@](O)(C(F)(F)F)CCN3C(=O)C34CC(F)(C3)C4)nc2n1)C1CCC(F)(F)CC1 (single isomer, unassigned) [Example 32]
126 nM	Cc1nonc1C(=O)N[C@H](c1cn2ncc([C@H]3C[C@@](O)(C(F)(F)F)CCN3C(=O)C34CC(F)(C3)C4)nc2n1)C1CCC(F)(F)CC1 (single isomer, unassigned) [Example 33]
3.98 nM	Cc1nonc1C(=O)N[C@H](c1cn2ncc([C@@H]3C[C@](C)(O)CCN3C(=O)[C@@H]3CCC(F)(F)CO3)nc2n1)C1CCC(F)(F)CC1 (single isomer, unassigned) [Example 34]
126 nM	Cc1nonc1C(=O)N[C@H](c1cn2ncc([C@H]3C[C@@](C)(O)CCN3C(=O)[C@@H]3CCC(F)(F)CO3)nc2n1)C1CCC(F)(F)CC1 (single isomer, unassigned) [Example 35]
12.6 nM	Cc1nonc1C(=O)N[C@H](c1cn2ncc([C@@H]3C[C@](C)(O)CCN3C(=O)C34CC(F)(C3)C4)nc2n1)C1CCC(F)(F)CC1 (single isomer, unassigned) [Example 36]
794 nM	Cc1nonc1C(=O)N[C@H](c1cn2ncc([C@H]3C[C@@](C)(O)CCN3C(=O)C34CC(F)(C3)C4)nc2n1)C1CCC(F)(F)CC1 (single isomer, unassigned) [Example 37]
126 nM	Cc1nonc1C(=O)N[C@H](c1cn2ncc([C@@H]3C[C@@](C)(O)CCN3C(=O)[C@@H]3CCC(F)(F)CO3)nc2n1)C1CCC(F)(F)CC1 (single isomer, unassigned) [Example 38]
5.01 nM	Cc1nonc1C(=O)N[C@H](c1cn2ncc([C@H]3C[C@](C)(O)CCN3C(=O)[C@@H]3CCC(F)(F)CO3)nc2n1)C1CCC(F)(F)CC1 (single isomer, unassigned) [Example 39]
